Assay results published in patent US20060089412A1, “Pharmaceutical composition for the treatment of non-alcoholic fatty liver disease” (AJINOMOTO CO. INC., priority 2004, published 2006).

Experiments:
[1] = tested on: choline-deficient diet (CDD) rat model; assay: Choline-deficient diet (CDD) rat model of NASH-like liver change; assay type: in vivo, Male Wistar rats; settings: CDD mixed with 4% L-alanine for 4 weeks
From the text: Male Wistar rats (7 weeks of age, 5 rats per group) received CDD (Dyets Co.) for 4 weeks.
On the other hand, in the group of 5 rats received CDD mixed with 4% L-alanine for 4 weeks, one rat is normalized in liver weight (10.6 g).

[2] = Body weight in HFD-induced fatty liver rat model; assay type: in vivo, Male GK rats; settings: for body weight increase compared with HFD alone: 6 weeks, HFD + drug versus HFD alone; for Body Weight, Pre: before feeding
From the text: Male GK rats (9 weeks of age, 6 rats per group) received HFD (containing 30% beef tallow) for 6 weeks.

[3] = tested on: HFD-induced fatty liver rat model; assay: Hepatic triglyceride contents in high-fat diet (HFD)-induced fatty liver rat model; assay type: in vivo, Male GK rats; settings: diet mixed with 4% L-alanine for 6 weeks; one rat of 6, in the level of SD group
Description: It has been supposed that the increase of the amount of fat intake in the last few decades is one of the causes of the recent increase of the number of patients with NASH. Therefore, the effect of L-alanine on the hepatic triglyceride contents in the high-fat diet (hereinafter HFD)-induced fatty liver rat model.
Male GK rats (9 weeks of age, 6 rats per group) received HFD (containing 30% beef tallow) for 6 weeks. Triglyceride contents in the liver tissue was increased to 29.1 to 49.3 mg per gram of liver tissue, compared with those (14.1 to 24.2 mg) in the group fed with standard diet (containing 5% soy-been oil; hereinafter SD).
Pioglitazone is a drug, which acts as an insulin-sensitizer for the patients with diabetes. Recent clinical pilot studies raise the possibility of clinical utility of pioglitazone for NASH.
On the other hand, in the group of 6 rats received CDD mixed with 4% L-alanine for 6 weeks, one rat is reduced in the liver triglyceride contents (19.6 mg) in the level of SD group.

For `C[C@H](N)C(=O)O` [L-alanine], the liver weight ([1]; one rat of 5 (normalized), CDD alone 14.5 to 20.0 g) was 10.6 g, the “histological fat accumulation in the liver” value ([1]; the one rat of 5 with normalized liver weight) was “not recognized” and the “body weight increase compared with HFD alone” value [2] was “not observed”. The “Body Weight, Post (at 6 weeks)” value ([2]; after 6 weeks of HFD mixed with drug, means ± SD (n = 6)) was 331.8 ± 20.5 g, the “Body Weight, Pre” value ([2]; means ± SD (n = 6)) was 219.8 ± 13.0 g and the liver triglyceride contents [3] was 19.6 mg.
In the case of `CCc1ccc(CCOc2ccc(CC3SC(=O)NC3=O)cc2)nc1` (centres unmarked) [pioglitazone, reference compound], the “body weight increase compared with HFD alone” value [2] is reported as “significantly more increased” and the “Body Weight, Pre” value ([2]; means ± SD (n = 6)) is reported as 222.1 ± 9.9 g.
